Test results: patent US8952157B2, “Apoptosis-inducing agents for the treatment of cancer and immune and autoimmune diseases” (AbbVie Inc., priority 2008, dated 2015)

These compounds were tested against GST-Bcl-2 (Homo sapiens (Human), UniProt P10415) (assay: Time Resolved-Fluorescence Resonance Energy Transfer (TR-FRET) Bcl-2 binding assay). Conditions: GST-Bcl-2 1 nM, F-Bak peptide probe 100 nM, Tb-anti-GST antibody 1 nM; Ki by Wang's equation.
In short: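 Ki values derived from TR-FRET displacement of F-Bak peptide from GST-Bcl-2, detected with Tb-labelled anti-GST antibody (ex 340, em 520/495 nm). Compound dilution series started at 50 μM (2× starting concentration); room-temperature incubation 3 hours.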

GST-Bcl-2, sequence (P10415 whole entry): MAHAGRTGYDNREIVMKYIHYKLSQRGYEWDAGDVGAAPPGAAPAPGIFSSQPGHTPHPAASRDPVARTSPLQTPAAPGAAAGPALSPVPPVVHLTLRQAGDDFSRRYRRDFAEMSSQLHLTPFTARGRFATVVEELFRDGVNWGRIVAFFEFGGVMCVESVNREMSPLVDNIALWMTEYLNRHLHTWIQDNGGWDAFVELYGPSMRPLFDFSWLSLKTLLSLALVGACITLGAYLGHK

Row | Compound | Ki [nM]
1 | CC1(C)CCC(CN2CCN(c3ccc(C(=O)NS(=O)(=O)c4ccc(NCCN5CCOCC5)c([N+](=O)[O-])c4)c(Oc4ccccc4F)c3)CC2)=C(c2ccc(Cl)cc2)C1 [Example 126, 4-(4-{[2-(4-chlorophenyl)-4,4-dimethylcyclohex-1-en-1-yl]methyl}piperazin-1-yl)-2-(2-fluorophenoxy)-N-({4-[(2-morpholin-4-ylethyl)amino]-3-nitrophenyl}sulfonyl)benzamide] | 0.068
2 | O=C(NS(=O)(=O)c1ccc(NCC2CCOCC2)c([N+](=O)[O-])c1)c1ccc(N2CCN(Cc3cc(CCN4CCCC4)ccc3-c3ccc(Cl)cc3)CC2)cc1Oc1cccc(Cl)c1 [Example 53, 2-(3-chlorophenoxy)-4-(4-((4′-chloro-4-(2-pyrrolidin-1-ylethyl)-1,1′-biphenyl-2-yl)methyl)piperazin-1-yl)-N-((3-nitro-4-((tetrahydro-2H-pyran-4-ylmethyl)amino)phenyl)sulfonyl)benzamide] | 0.077
3 | O=C(NS(=O)(=O)c1ccc(NCC2CCOCC2)c([N+](=O)[O-])c1)c1ccc(N2CCN(Cc3ccccc3-c3ccc(Cl)cc3)CC2)cc1Oc1ccc(OCCN2CCOCC2)cc1 [Example 94, 4-(4-((4′-chloro-1,1′-biphenyl-2-yl)methyl)piperazin-1-yl)-2-(4-(2-morpholin-4-ylethoxy)phenoxy)-N-((3-nitro-4-((tetrahydro-2H-pyran-4-ylmethyl)amino)phenyl)sulfonyl)benzamide] | 561
4 | CC(=O)Nc1ccc(Oc2cc(N3CCN(CC4=C(c5ccc(Cl)cc5)CC(C)(C)CC4)CC3)ccc2C(=O)NS(=O)(=O)c2ccc(NCC3CCOCC3)c([N+](=O)[O-])c2)cn1 [Example 355, 2-{[6-(acetylamino)pyridin-3-yl]oxy}-4-(4-{[2-(4-chlorophenyl)-4,4-dimethylcyclohex-1-en-1-yl]methyl}piperazin-1-yl)-N-({3-nitro-4-[(tetrahydro-2H-pyran-4-ylmethyl)amino]phenyl}sulfonyl)benzamide] | 9.57
5 | CN1CCN(Nc2ccc(S(=O)(=O)NC(=O)c3ccc(N4CCN(CC5=C(c6ccc(Cl)cc6)CC(C)(C)CC5)CC4)cc3Oc3ccc4[nH]cc(CCN)c4c3)cc2[N+](=O)[O-])CC1 [Example 300, 2-{[3-(2-aminoethyl)-1H-indol-5-yl]oxy}-4-(4-{[2-(4-chlorophenyl)-4,4-dimethylcyclohex-1-en-1-yl]methyl}piperazin-1-yl)-N-({4-[(4-methylpiperazin-1-yl)amino]-3-nitrophenyl}sulfonyl)benzamide] | 13.7
6 | O=C(NS(=O)(=O)c1ccc(NCCCN2CCOCC2)c([N+](=O)[O-])c1)c1ccc(N2CCN(Cc3ccccc3-c3ccc(Cl)cc3)CC2)cc1Oc1cccc(Cl)c1 [Example 12, 4-(4-((4′-chloro-1,1′-biphenyl-2-yl)methyl)piperazin-1-yl)-2-(3-chlorophenoxy)-N-((4-((3-morpholin-4-ylpropyl)amino)-3-nitrophenyl)sulfonyl)benzamide] | 0.331
7 | CN1CCC(Nc2ccc(C(=O)NS(=O)(=O)c3ccc(N4CCN(Cc5ccccc5-c5ccc(Cl)cc5)CC4)cc3Oc3cc(Cl)cc(Cl)c3)cc2[N+](=O)[O-])CC1 [Example 111, N-{[4-{4-[(4′-chloro-1,1′-biphenyl-2-yl)methyl]piperazin-1-yl}-2-(3,5-dichlorophenoxy)phenyl]sulfonyl}-4-[(1-methylpiperidin-4-yl)amino]-3-nitrobenzamide] | 17.4
8 | CC1(C)CCC(CN2CCN(c3ccc(C(=O)NS(=O)(=O)c4ccc(NC5CCN(C6COC6)CC5)c([N+](=O)[O-])c4)c(Oc4cnc(N)c(Cl)c4)c3)CC2)=C(c2ccc(Cl)cc2)C1 [Example 364, 2-[(6-amino-5-chloropyridin-3-yl)oxy]-4-(4-{[2-(4-chlorophenyl)-4,4-dimethylcyclohex-1-en-1-yl]methyl}piperazin-1-yl)-N-({3-nitro-4-[(1-oxetan-3-ylpiperidin-4-yl)amino]phenyl}sulfonyl)benzamide] | 0.014
